Patent US8344010B2, “Fused imidazole derivatives as TRPV3 antagonist” (Glenmark Pharmaceuticals S.A., priority 2008, dated 2013)

Biological target: T1, Human TRPV3 (Homo sapiens, UniProt Q8NET8)
T1 construct: expressed in transfected cells; host or cells: CHO cells (selected with G-418)
T1 sequence (Q8NET8 1-790): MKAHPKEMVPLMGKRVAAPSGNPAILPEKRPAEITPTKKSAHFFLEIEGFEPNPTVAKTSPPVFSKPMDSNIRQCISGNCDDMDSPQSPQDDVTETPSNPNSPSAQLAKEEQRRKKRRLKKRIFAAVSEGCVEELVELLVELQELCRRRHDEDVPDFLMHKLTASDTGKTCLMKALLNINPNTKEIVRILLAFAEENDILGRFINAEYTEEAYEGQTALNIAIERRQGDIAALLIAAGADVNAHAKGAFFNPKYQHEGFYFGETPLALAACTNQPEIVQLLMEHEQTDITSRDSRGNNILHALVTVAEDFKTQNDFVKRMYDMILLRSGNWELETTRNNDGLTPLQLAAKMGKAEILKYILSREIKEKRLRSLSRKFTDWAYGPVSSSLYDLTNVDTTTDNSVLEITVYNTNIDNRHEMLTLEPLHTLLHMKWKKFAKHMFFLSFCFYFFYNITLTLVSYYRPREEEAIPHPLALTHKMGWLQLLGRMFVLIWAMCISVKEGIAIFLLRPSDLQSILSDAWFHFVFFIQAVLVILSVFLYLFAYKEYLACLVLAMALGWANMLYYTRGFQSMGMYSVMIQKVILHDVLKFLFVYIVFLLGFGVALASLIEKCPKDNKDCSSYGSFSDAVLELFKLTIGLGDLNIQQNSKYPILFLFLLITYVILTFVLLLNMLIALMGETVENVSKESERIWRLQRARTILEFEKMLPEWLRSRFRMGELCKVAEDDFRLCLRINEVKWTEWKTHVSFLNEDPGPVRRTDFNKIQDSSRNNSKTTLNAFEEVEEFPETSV
Assay: 45Calcium uptake assay: inhibition of 2-APB induced cellular uptake of radioactive calcium
Assay type: cell-based
Details: human TRPV3 expressing CHO cells, 2-APB 500 μM; for inhibition at 1 µM: 1 μM test compound, read-out: Percentage Inhibition (1 μM); for inhibition at 10 µM: 10 μM test compound, read-out: Percentage Inhibition (10 μM); for IC50: class symbol
Text: The illustrative examples of the present invention are screened for TRPV3 activity according to a modified procedure described in Tóth, A., Kedei, N., Wang, Y. and Blumberg, P. M. Life Sciences (2003), 73, 487-498. The screening of the compounds can be carried out by other methods and procedures known to a person skilled in the art. Such screening methods may be found in (a) Hu, H.-Z. et al. J. Biol. Chem. (2004), 279, 35741-35747; (b) Smith, G. D. et al. Nature (2002), 418, 186-190; (c) Peier, A. M. et al. Science (2002), 296, 2046-2049.
Screening for TRPV3 antagonist using the ^45Calcium uptake assay The inhibition of TRPV3 receptor activation was followed as inhibition of 2-aminoethoxydiphenylborate (2-APB) induced cellular uptake of radioactive calcium. Test compounds were dissolved in dimethyl sulfoxide (DMSO) to prepare 20 mM stock solution and then diluted using plain medium with DMEM/F-12 containing 1.8 mM CaCl2 to get desired concentration. Final concentration of DMSO in the reaction was 0.5% (v/v). Human TRPV3 expressing CHO cells were grown in DMEM/F-12 medium with 10% FBS, 1% penicillin-streptomycin solution, 400 μg/ml of G-418. Cells were seeded 24 h prior to the assay in 96 well plates so as to get ˜50,000 cells per well on the day of experiment. Cells were treated with test compounds for 10 minutes followed by addition of 2-APB at a final concentration of 500 μM and 5 μCi/ml^45Ca^+2 for 4 minutes. Cells were washed and lysed using buffer containing 1% Triton X-100, 0.1% deoxycholate and 0.1% SDS. Radioactivity in the lysate was measured in Packardt Top count after addition of liquid scintillant. Concentration response curves were plotted as a % of maximal response obtained in the absence of test antagonist. IC50 value was calculated from concentration response curve by nonlinear regression analysis using GraphPad PRISM software.
Percentage inhibition at concentrations of 1.0 μM and 10.0 μM are given in the table along with IC50 details for selected examples.

Compound	inhibition at 1 µM [%]	inhibition at 10 µM [%]	IC50 [nM]
CCCCOc1c(/C=C/c2nc3ccccc3n2-c2ccc(C#N)cc2)cccc1OC [Example 36, 4-{2-[(E)-2-(2-Butoxy-3-methoxyphenyl)vinyl]-1H-benzimidazol-1-yl}benzonitrile]	82.8	96	100 to 500
N#Cc1ccc(-n2c(/C=C/c3cccc(OC(F)F)c3OC3CCCC3)nc3cc(Cl)cnc32)nc1 [Example 103, 6-(6-Chloro-2-{(E)-2-[2-(cyclopentyloxy)-3-difluoromethoxyphenyl]vinyl}-3H-imidazo[4,5-b]pyridin-3-yl)nicotinonitrile]	98.3	97.8	50 to 100
COc1cccc(/C=C/c2nc3ccccc3n2-c2ccc(C#N)cn2)c1OCc1ccc(F)cc1F [Example 18, 6-(2-{(E)-2-[2-(2,4-Difluorobenzyloxy)-3-methoxyphenyl]vinyl}-1H-benzimidazol-1-yl)nicotinonitrile]	94.2	97.3	100 to 500
COc1cccc(/C=C/c2nc3cc(OC(F)F)ccc3n2-c2ccc(C#N)cn2)c1OC1CCCC1 [Example 59, 6-{2-[(E)-2-(2-[Cyclopentyloxy]-3-methoxyphenyl)vinyl]-5-(difluoromethoxy)-1H-benzimidazol-1-yl}nicotinonitrile]	95.8	97.9	50 to 100
N#Cc1ccc(-n2c(/C=C/c3cccc(OC(F)F)c3OC3CCCC3)nc3cc(F)c(F)cc32)nc1 [Example 84, 6-(2-{(E)-2-[2-(Cyclopentyloxy)-3-difluoromethoxyphenyl-]vinyl}-5,6-difluoro-1H-benzimidazol-1-yl)nicotinonitrile]	98.4	99.3	< 50
COc1cccc(/C=C/c2nc3cc(C)c(C)cc3n2-c2ccc(C#N)cn2)c1OC1CCCC1 [Example 62, 6-{2-[(E)-2-(2-[Cyclopentyloxy]-3-methoxyphenyl)vinyl]-5,6-dimethyl-1H-benzimidazol-1-yl}nicotinonitrile]	92	95.9	100 to 500
COc1cccc(/C=C/c2nc3ccccc3n2-c2ccc(C#N)cn2)c1OCc1ccccc1F [Example 14, 6-(2-{(E)-2-[2-(2-Fluorobenzyloxy)-3-methoxyphenyl]vinyl}-1H-benzimidazol-1-yl)nicotinonitrile]	93.2	97.7	100 to 500
CCCCCOc1c(/C=C/c2nc3c(F)c(F)c(F)cc3n2-c2ccc(C#N)cn2)cccc1OC [Example 81, 6-{2-[(E)-2-(2-pentyloxy-3-methoxyphenyl)vinyl]-4,5,6-trifluoro-1H-benzimidazol-1-yl}nicotinonitrile]	90.7	95.7	< 50
COc1cccc(/C=C/c2nc3ccc(Cl)cc3n2-c2ccc(C#N)cn2)c1OC1CCCC1 [Example 54, 6-{6-Chloro-2-[(E)-2-(2-cyclopentyloxy-3-methoxyphenyl)vinyl]-1H-benzimidazol-1-yl}nicotinonitrile]	95.3	97.7	50 to 100
COc1cccc(/C=C/c2nc3ccc(F)cc3n2-c2ccc(C#N)cn2)c1OC1CCCC1 [Example 53, 6-{2-[(E)-2-(2-Cyclopentyloxy-3-methoxyphenyl)vinyl]-6-fluoro-1H-benzimidazol-1-yl}nicotinonitrile]	96	98.7	100 to 500
COc1cccc(/C=C/c2nc3cc(F)c(F)cc3n2-c2ccc(C#N)cn2)c1OC1CCCC1 [Example 68, 6-{2-[(E)-2-(2-Cyclopentyloxy-3-methoxyphenyl)vinyl]-5,6-difluoro-1H-benzimidazol-1-yl}nicotinonitrile]	95	99.1	50 to 100
COc1cccc(/C=C/c2nc3ccccc3n2-c2nc3ccccc3s2)c1OCC1CC1 [Example 50, 2-{2-[(E)-2-(2-Cyclopropylmethoxy-3-methoxyphenyl)vinyl]-1H-benzimidazol-1-yl}-1,3-benzothiazole]	26.1	46.6	
COc1cccc(/C=C/c2nc3ccccc3n2-c2ccc(C#N)cn2)c1OCC(C)C [Example 11, 6-(2-{(E)-2-[3-methoxy-2-(2-methylpropoxy)phenyl]ethenyl}-1H-benzimidazol-1-yl)pyridine-3-carbonitrile]	94.8	97.4	100 to 500
COc1cccc(/C=C/c2nc3ccccc3n2-c2ncc(C(F)(F)F)cc2Cl)c1OC1CCCC1 [Example 29, 1-[3-Chloro-5-(trifluoromethyl)pyridin-2-yl]-2-[(E)-2-(2-cyclopentyloxy-3-methoxyphenyl)vinyl]-1H-benzimidazole]	78.8	93.6	100 to 500
COc1cccc(/C=C/c2nc3cnccc3n2-c2ccc(C#N)cn2)c1OC1CCCC1 [Example 104, 6-{2-[(E)-2-(2-[Cyclopentyloxy]-3-methoxyphenyl)vinyl]-1H-imidazo[4,5-c]pyridin-1-yl}nicotinonitrile]	48.7	98.3	
COc1cccc(/C=C/c2nc3ccccc3n2-c2ncccc2C(F)(F)F)c1OC1CCCC1 [Example 24, 2-[(E)-2-(2-Cyclopentyloxy-3-methoxyphenyl)vinyl]-1-[3-(trifluoromethyl)pyridin-2-yl]-1H-benzimidazole]	84.7	98	> 500
COc1cccc(/C=C/c2nc3cc(C(F)(F)F)ccc3n2-c2ccc(C#N)cn2)c1OC1CCCC1 [Example 57, 6-{2-[(E)-2-(2-[Cyclopentyloxy]-3-methoxyphenyl)vinyl]-5-(trifluoromethyl)-1H-benzimidazol-1-yl}nicotinonitrile]	93	96.1	100 to 500
COc1cccc(/C=C/c2nc3cc(Cl)c(Cl)cc3n2-c2ccc(C#N)cn2)c1OC1CCCC1 [Example 72, 6-{5,6-Dichloro-2-[(E)-2-(2-cyclopentyloxy-3-methoxyphenyl)vinyl]-1H-benzimidazol-1-yl}nicotinonitrile]	90.8	95.5	100 to 500
COC(=O)c1ccc(-n2c(/C=C/c3cccc(OC)c3OC3CCCC3)nc3ccccc32)nc1 [Example 30, Methyl 6-(2-{(E)-2-[2-(Cyclopentyloxy)-3-methoxyphenyl]vinyl}-1H-benzimidazol-1-yl)nicotinate]	16.4	27.5	
COc1cccc(/C=C/c2nc3cc(F)c(F)cc3n2-c2ccc(C#N)cn2)c1O [Example 69, 6-{5,6-Difluoro-2-[(E)-2-(2-hydroxy-3-methoxyphenyl)vinyl]-1H-benzimidazol-1-yl}nicotinonitrile]	32.7	95.5	
COc1cccc(/C=C/c2nc3cc(F)c(F)cc3n2-c2ncccc2C#N)c1OC1CCCC1 [Example 61, 2-{2-[(E)-2-(2-Cyclopentyloxy-3-methoxyphenyl)vinyl]-5,6-difluoro-1H-benzimidazol-1-yl}nicotinonitrile]	44.8	96	
